{
  "source": "patent US8481514B2",
  "about": "“Therapeutical uses of inecalcitol” (Hybrigenics SA, priority 2009, dated 2013)",
  "key": {"[1]": {"assay": "Dose finding and clinical tolerance study of inecalcitol with docetaxel-prednisone in HRPC patients (safety)", "assay_type": "in vivo, human", "conditions": "for adverse events related to the drug: attribution of the AEs seen under the combination", "protocol": "Escalating oral dosages of inecalcitol were combined to chemotherapy in naive HRPC patients. Safety was evaluated in groups of 3-6 patients receiving inecalcitol every other day (qod) or daily (qd) on a 21-day cycle in combination with intravenous docetaxel (75 mg/m2 q3w) and oral prednisone (5 mg bid). Patients (pts) received up to six cycles unless unacceptable toxicity or disease progression. Primary endpoint was dose limiting toxicity (DLT) defined as grade 3 hypercalcemia within the first cycle. Calcemia, creatininemia and complete blood counts were assessed weekly; biochemistry, electrocardiogram and prostate specific antigen (PSA) every 3 weeks. Efficacy endpoint was PSA response defined as ≧30% decline within 3 months.\n(§1) Inecalcitol was given to patients in soft gelatine capsules of different sizes, shapes and strengths depending on the dose level studied: one, two or four 40 μg capsules (size 11, oblong shape) for administration of 40, 80 or 160 μg/day, respectively; three or six 100 μg capsules (size 4, round shape) for administration of 300 or 600 μg/day, respectively; five 200 μg capsules (size 7.5, oval shape) for administration of 1,000 μg/day; five 400 μg capsules (size 14, oblong shape) for administration of 2 mg/day, and four 1 mg capsules (size 14, oblong shape) for administration of 4 mg/day. In all the capsules, inecalcitol was present in the fill content as a solution in medium chain triglycerides from fractionated coconut oil at different concentrations depending on the capsule strengths."}, "[2]": {"assay": "9-month toxicology study of once-a-day oral inecalcitol in monkeys (calcemia, toxicity)", "assay_type": "in vivo", "protocol": "(§2) On FIG. 1, mean plasma concentrations of inecalcitol are plotted vs. time on the first day of the study and close to its end, at day 272. The mean toxicokinetic profiles are almost superimposable, with a mean peak of about 1.2 ng/ml achieved as soon as 15 minutes after oral intake, and a steady disappearance from circulation within 4 hours."}, "[3]": {"assay": "9-month toxicokinetic study of once-a-day oral inecalcitol in monkeys (plasma concentrations)", "assay_type": "in vivo", "conditions": "male mature monkeys, day 1 and day 272", "protocol": "FIG. 1 illustrates the mean plasma concentrations vs time obtained during a 9-month toxicology study on once-a-day oral inecalcitol performed in male mature monkeys.\nas §2"}, "[4]": {"assay": "2-week toxicology study of twice-a-day oral inecalcitol in monkeys (calcemia, toxicity)", "assay_type": "in vivo, cynomolgus monkeys", "conditions": "for plasma calcium level (mean±s.e.m.): same 4 animals", "protocol": "(§3) On FIG. 2, mean plasma concentrations of inecalcitol are plotted vs. time on the first day of treatment with two successive administrations of inecalcitol around 8 AM and 7 PM, i.e. about 11 hours apart. […] In both instances, inecalcitol levels returned to basal levels within 4 hours. In the table below, plasma calcium levels (in mmoles/L, mean±s.e.m.) were monitored in the same 4 animals for two weeks before and for two weeks during the treatment period."}, "[5]": {"assay": "2-week toxicokinetic study of twice-a-day oral inecalcitol in monkeys (plasma concentrations)", "assay_type": "in vivo, cynomolgus monkeys", "conditions": "first day of treatment", "protocol": "FIG. 2 illustrates the mean plasma concentrations vs time obtained during a 2-week toxicology study on twice-a-day oral inecalcitol performed in male juvenile monkeys.\nas §3"}, "[6]": {"assay": "Pharmacokinetics of oral inecalcitol in HRPC patients (LC/MS/MS of plasma)", "assay_type": "in vivo", "conditions": "human patients", "protocol": "as §1\nInecalcitol was assayed as unchanged circulating compound in the plasma by liquid chromatography followed by tandem mass spectrometry (LC/MS/MS). […] At 600 μg and 1000 μg, mean peak values reached around 35 and 45 pg/ml (0.035 and 0.045 ng/ml) at 90 and 45 minutes, respectively."}, "[7]": {"conditions": "Eelen et al. 2005; Verlinden et al. 2001; cited from earlier work"}, "[8]": {"conditions": "Eelen et al. 2005; Verlinden et al. 2001; cited from earlier work", "remark": "listed apart in the source"}, "[9]": {"tested_on": "human breast cancer cells", "conditions": "in vitro and in vivo; Verlinden et al. 2000; cited from earlier work"}, "[10]": {"conditions": "male mature cynomolgus monkeys, daily oral, 9 months, up to highest tested dose 1.8 mg per day per monkey"}, "[11]": {"conditions": "male juvenile cynomolgus monkeys, twice daily oral, 2×1.6 mg each day, 2 weeks"}, "[12]": {"conditions": "50 pts treated, inecalcitol with docetaxel and prednisone"}, "[13]": {"conditions": "HRPC patients, oral 300 μg, 600 μg, 1000 μg (qod,qd), 2 mg (qd) or 4 mg (qd)"}},
  "data": [
    {"smiles": "CC(=O)O[C@@]12CO[C@@H]1C[C@H](O)[C@@]1(C)C(=O)[C@H](O)C3=C(C)[C@@H](OC(=O)[C@H](O)[C@@H](NC(=O)OC(C)(C)C)c4ccccc4)C[C@@](O)([C@@H](OC(=O)c4ccccc4)[C@H]21)C3(C)C", "note": "[docetaxel, reference compound]", "values": [
      {"measurement": "adverse events related to the drug", "setting": "[1]", "result": "All these AEs"}
    ]},
    {"smiles": "C[C@H](CC#CC(C)(C)O)[C@H]1CC[C@@H]2/C(=C/C=C3C[C@@H](O)C[C@H](O)C3)CCC[C@@]21C", "note": "[inecalcitol, 19-nor-9,10-seco-14βH-cholesta-5(Z),7(E)-dien-23-ino-1α,3β,25-triol-23-yne]", "values": [
      {"measurement": "maximal tolerated dose", "setting": "[2]; 9-month daily oral, highest tested dose 1.8 mg per day per monkey", "result": "has not been reached"},
      {"measurement": "difference in plasma calcium levels between control and treated monkeys", "setting": "[2]; different time points during the 9-month study", "result": "did not show any difference"},
      {"measurement": "hypercalcemia", "setting": "[2]; [10]", "result": "no hypercalcemia"},
      {"measurement": "toxic effects", "setting": "[2]; [10]", "result": "no toxic effects"},
      {"measurement": "plasma calcium level (mean±s.e.m.)", "setting": "[2]; treated monkeys n = 6, Day 85", "result": "2.53 ± 0.03", "unit": "mmol/L"},
      {"measurement": "plasma calcium level (mean±s.e.m.)", "setting": "[2]; treated monkeys n = 6, Day 175", "result": "2.49 ± 0.05", "unit": "mmol/L"},
      {"measurement": "plasma calcium level (mean±s.e.m.)", "setting": "[2]; treated monkeys n = 6, Day 268", "result": "2.51 ± 0.05", "unit": "mmol/L"},
      {"measurement": "plasma calcium level (mean±s.e.m.)", "setting": "[2]; treated monkeys n = 6, Day −12 (before treatment)", "result": "2.54 ± 0.11", "unit": "mmol/L"},
      {"measurement": "mean peak plasma concentration", "setting": "[3]; 1.8 mg per day", "result": "about 1.2 ng/ml"},
      {"measurement": "disappearance from circulation", "setting": "[3]", "result": "≤ 4", "unit": "h"},
      {"measurement": "time of mean peak after oral intake", "setting": "[3]", "result": 15, "unit": "min"},
      {"measurement": "hypercalcemia", "setting": "[4]; [11]", "result": "no hypercalcemia"},
      {"measurement": "toxic effects", "setting": "[4]; [11]", "result": "no toxic effects"},
      {"measurement": "plasma calcium level (mean±s.e.m.)", "setting": "[4]; Day 7 of treatment, 2×1.6 mg each day", "result": "2.68 ± 0.15", "unit": "mmol/L"},
      {"measurement": "plasma calcium level (mean±s.e.m.)", "setting": "[4]; Day 13 of treatment, 2×1.6 mg each day", "result": "2.76 ± 0.12", "unit": "mmol/L"},
      {"measurement": "plasma calcium level (mean±s.e.m.)", "setting": "[4]; Day −6 (before treatment)", "result": "2.61 ± 0.06", "unit": "mmol/L"},
      {"measurement": "plasma calcium level (mean±s.e.m.)", "setting": "[4]; Day −13 (before treatment)", "result": "2.66 ± 0.088", "unit": "mmol/L"},
      {"measurement": "changes in plasma calcium", "setting": "[4]; two weeks before vs two weeks during treatment", "result": "No significant changes"},
      {"measurement": "return of inecalcitol levels to basal levels", "setting": "[5]; after each of the two administrations", "result": "≤ 4", "unit": "h"},
      {"measurement": "peak mean plasma concentration, second administration", "setting": "[5]; male juvenile monkeys, 1.6 mg oral around 7 PM", "result": 2.50, "unit": "ng/mL"},
      {"measurement": "peak mean plasma concentration, first administration", "setting": "[5]; male juvenile monkeys, 1.6 mg oral around 8 AM", "result": 2.75, "unit": "ng/mL"},
      {"measurement": "G1-2 adverse event: asthenia", "setting": "[1]; [12]", "result": 22, "unit": "pts"},
      {"measurement": "G1-2 adverse event: constipation", "setting": "[1]; [12]", "result": 15, "unit": "pts"},
      {"measurement": "G1-2 adverse event: diarrhea", "setting": "[1]; [12]", "result": 13, "unit": "pts"},
      {"measurement": "G3-4 AE: arrhythmia", "setting": "[1]; [12]", "result": 2, "unit": "pts"},
      {"measurement": "G3-4 AE: asthenia", "setting": "[1]; [12]", "result": 3, "unit": "pts"},
      {"measurement": "G3-4 AE: diarrhea", "setting": "[1]; [12]", "result": 1, "unit": "pt"},
      {"measurement": "G3-4 AE: general health deterioration", "setting": "[1]; [12]", "result": 3, "unit": "pts"},
      {"measurement": "G3-4 AE: lymphopenia", "setting": "[1]; [12]", "result": 12, "unit": "pts"},
      {"measurement": "G3-4 AE: neutropenia", "setting": "[1]; [12]", "result": 36, "unit": "pts"},
      {"measurement": "increased calcemia", "setting": "[1]; HRPC patients, oral 40 μg to 4 mg qod or qd, with docetaxel and prednisone, 50 pts treated", "result": "No increased calcemia"},
      {"measurement": "hypercalcemia", "setting": "[1]; [13]", "result": "did not induce any hypercalcemia"},
      {"measurement": "toxic effect", "setting": "[1]; [13]", "result": "did not induce any hypercalcemia or any toxic effect"},
      {"measurement": "adverse events related to the drug", "setting": "[1]", "result": "none"},
      {"measurement": "peak plasma values", "setting": "[6]; oral 300 μg, lower limit of quantitation 10 pg/ml", "result": "barely detectable above the lower limit of quantitation"},
      {"measurement": "time of mean peak value", "setting": "[6]; oral 600 μg", "result": 90, "unit": "min"},
      {"measurement": "time of mean peak value", "setting": "[6]; oral 1000 μg", "result": 45, "unit": "min"},
      {"measurement": "time of mean peak value", "setting": "[6]; oral 2 mg", "result": 90, "unit": "min"},
      {"measurement": "time of mean peak value", "setting": "[6]; oral 4 mg", "result": 45, "unit": "min"},
      {"measurement": "half-life", "setting": "[6]; male, plasma, four mean profiles between 600 μg and 4 mg oral, read-out: approximate half-life", "result": "1 to 1.5", "unit": "h"},
      {"measurement": "antiproliferative effects compared with calcitriol", "setting": "[7]", "result": "enhanced"},
      {"measurement": "calcemic effects compared with calcitriol", "setting": "[8]", "result": "markedly lower"},
      {"measurement": "activity on growth of human breast cancer cells", "setting": "[9]", "result": "inhibiting the growth"}
    ]}
  ]
}
